What all share (type): in vivo
One assay has as its system Meloidogyne incognita. As to the kind of experiment: Meloidogyne incognita test. Conditions: 336 h, lettuce, after 14 days, read-out: nematicidal efficacy (formation of galls). Put shortly:
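Active compound in acetone, diluted with water, added to sand-filled vessels with M. incognita eggs/larvae and lettuce seeds. After 14 days, efficacy scored by root gall formation: 100% = no galls, 0% = galls equal to untreated control.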

The test system of assay [1] is Myzus persicae. As to the kind of experiment: Myzus persicae spray test (Chinese cabbage leaf discs). Conditions: foliar, 120 h, 500 g/ha, after 5-6 days, read-out: efficacy. An outline of the steps: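 Chinese cabbage leaf discs infested with all stages of green peach aphid were sprayed with compound formulated in acetone/DMF and emulsifier-containing water. Efficacy in % was scored after 5-6 days, with 100% meaning all aphids killed and 0% none killed.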

The test system of the next assay is Phaedon cochleariae. The assay can be described thus: Phaedon cochleariae spray test. The following applies: foliar, 168 h, Chinese cabbage leaf discs, larvae, after 7 days, read-out: efficacy. The protocol:
Phaedon cochleariae—Spray Test
To produce a suitable preparation of active compound, 1 part by weight of active compound is dissolved using the specified parts by weight of solvent and made up with water containing an emulsifier concentration of 1000 ppm until the desired concentration is attained. To produce further test concentrations, the formulation is diluted with emulsifier-containing water.
After 7 days, the efficacy in % is determined. 100% means that all the beetle larvae have been killed; 0% means that no beetle larvae have been killed.

The subject of assay [2] is Myzus persicae. The assay can be described thus: Myzus persicae oral test. The following applies: 120 h, 20 ppm, oral uptake, after 5 days, read-out: efficacy. An outline of the steps: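 Compound dissolved in acetone, diluted in water, then mixed 50:150 μl with IPL41 insect medium (33%+15% sugar). Mixed-population green peach aphids feed through a parafilm seal on the solution; mortality scored as % efficacy after 5 days (100% = all killed).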

Turning to `Cn1cc(C(=O)NS(=O)(=O)c2ccccc2Cl)nc1-c1c(F)cc(F)cc1F` [Example 2], in the assay with Meloidogyne incognita, the pest or weed control at 20 ppm came to 90%. Moreover, the pest or weed control at 500 g/ha is 90% in the assay on Myzus persicae [1] and 100% in the assay on Phaedon cochleariae.
For `Cn1cc(C(=O)NS(=O)(=O)c2cccc(Cl)c2)nc1-c1c(Cl)cccc1Cl` [Example 42], the pest or weed control at 20 ppm in the assay with Meloidogyne incognita was determined as 100%. Besides, the pest or weed control at 500 g/ha with Myzus persicae [1] and with Phaedon cochleariae was 100% throughout.
With `Cn1cc(C(=O)NS(=O)(=O)c2ccccc2C(F)(F)F)nc1-c1ccccc1Cl` [Example 58], the pest or weed control at 20 ppm was determined as 90% in the assay on Meloidogyne incognita and 100% in the assay on Myzus persicae [2]. Further, the pest or weed control at 500 g/ha in the assay on Myzus persicae [1] is 90%; in the assay with Phaedon cochleariae, 100%.
With `Cn1cc(C(=O)NS(=O)(=O)c2ccccc2Cl)nc1-c1c(Cl)cccc1Cl` [Example 100], the pest or weed control at 20 ppm in the assay with Meloidogyne incognita was determined as 90%; in the assay on Myzus persicae [2] it was 100%. Also, the pest or weed control at 500 g/ha with Myzus persicae [1] and in the assay on Phaedon cochleariae was 100% in each case.
On to `Cn1cc(C(=O)NS(=O)(=O)c2ccccc2Cl)nc1-c1c(F)cccc1Cl` [Example 106], for which the pest or weed control at 20 ppm in the assay with Meloidogyne incognita and in the assay on Myzus persicae [2] was 100% each time. Also, the figures for the pest or weed control at 500 g/ha in the assay on Myzus persicae [1] and in the assay with Phaedon cochleariae were 90% and 100%, respectively.
On to `Cc1ccc(S(=O)(=O)NC(=O)c2cn(C)c(-c3ccccc3Cl)n2)cc1` [Example 164], for which the pest or weed control at 20 ppm with Meloidogyne incognita came out at 90%. Moreover, the pest or weed control at 500 g/ha with Myzus persicae [1] and in the assay on Phaedon cochleariae was 100% throughout.
With `Cn1cc(C(=O)NS(=O)(=O)c2cc(Cl)ccc2Cl)nc1-c1c(F)cccc1F` [Example 171], the pest or weed control at 20 ppm with Meloidogyne incognita and with Myzus persicae [2] was 100% throughout. Besides, the pest or weed control at 500 g/ha in the assay with Myzus persicae [1] stood at 90%; with Phaedon cochleariae, 83%.
Take `Cc1cccc(S(=O)(=O)NC(=O)c2cn(C)c(-c3c(F)cccc3F)n2)c1` [Example 176]: the pest or weed control at 20 ppm in the assay with Meloidogyne incognita amounted to 100%; in the assay with Myzus persicae [2] it was 90%. Besides, the figures for the pest or weed control at 500 g/ha in the assay on Myzus persicae [1] and in the assay with Phaedon cochleariae were 90% and 83%, respectively.
Turning to `Cn1cc(C(=O)NS(=O)(=O)c2cc(Cl)cc(Cl)c2)nc1-c1c(F)cccc1F` [Example 188], the pest or weed control at 20 ppm with Meloidogyne incognita and with Myzus persicae [2] was 100% throughout. For the same molecule, the values for the pest or weed control at 500 g/ha with Myzus persicae [1] and in the assay with Phaedon cochleariae were 90% and 100%, respectively.
As for `Cc1ccccc1S(=O)(=O)NC(=O)c1cn(C)c(-c2cccc3ccccc23)n1` [Example 216], the pest or weed control at 20 ppm is 90% in the assay on Meloidogyne incognita and 100% with Myzus persicae [2]. Also, the pest or weed control at 500 g/ha with Phaedon cochleariae came to 100%.
Turning to `Cn1c(-c2ccccc2Cl)nc(C(=O)NS(=O)(=O)c2ccccc2Cl)c1Cl` [Example 221], the pest or weed control at 20 ppm in the assay with Meloidogyne incognita and in the assay with Myzus persicae [2] was 100% each time. The pest or weed control at 500 g/ha with Phaedon cochleariae is 100%.
With `Cn1cc(C(=O)NS(=O)(=O)c2c(Cl)cccc2Cl)nc1-c1ccccc1Cl` [Example 227], the pest or weed control at 20 ppm in the assay with Meloidogyne incognita came out at 100%. Moreover, the pest or weed control at 500 g/ha in the assay with Myzus persicae [1] stood at 100%; with Phaedon cochleariae it was 83%.
For `Cc1cc(C(=O)NS(=O)(=O)c2c(Cl)cccc2Cl)nn1-c1ccccc1Cl` [Example 269], the pest or weed control at 20 ppm with Meloidogyne incognita and with Myzus persicae [2] was 100% each time. The pest or weed control at 500 g/ha with Myzus persicae [1] was 100%; in the assay with Phaedon cochleariae it was 83%.
With `CCc1ccc(Cl)cc1S(=O)(=O)NC(=O)c1cn(C)c(-c2c(F)cccc2F)n1` [Example 279], the pest or weed control at 20 ppm in the assay on Meloidogyne incognita and with Myzus persicae [2] was 100% in each case. Also, the values for the pest or weed control at 500 g/ha with Myzus persicae [1] and in the assay with Phaedon cochleariae were 90% and 100%, respectively.
In the case of `CCc1ccc(Cl)cc1S(=O)(=O)NC(=O)c1cn(C)c(-c2ccccc2Cl)n1` [Example 280], the pest or weed control at 20 ppm is 90% in the assay with Meloidogyne incognita and 100% with Myzus persicae [2]. The pest or weed control at 500 g/ha in the assay with Myzus persicae [1] turned out to be 90%; in the assay on Phaedon cochleariae, 100%.
`Cc1cc(Br)ccc1S(=O)(=O)NC(=O)c1cn(C)c(-c2ccccc2Cl)n1` [Example 282]: the pest or weed control at 20 ppm in the assay on Meloidogyne incognita and in the assay with Myzus persicae [2] was 100% each time. The pest or weed control at 500 g/ha in the assay on Myzus persicae [1] came to 90%; with Phaedon cochleariae, 100%.
Regarding `COc1cc(S(=O)(=O)NC(=O)c2cn(C)c(-c3ccccc3Cl)n2)c(C)cc1Br` [Example 286], the pest or weed control at 20 ppm in the assay with Meloidogyne incognita and in the assay with Myzus persicae [2] was 100% throughout. The pest or weed control at 500 g/ha with Phaedon cochleariae was 100%.
Take `Cc1cc(F)c(F)cc1S(=O)(=O)NC(=O)c1cn(C)c(-c2c(F)cccc2F)n1` [Example 289]: the pest or weed control at 20 ppm is 90% with Meloidogyne incognita and 100% with Myzus persicae [2]. For the same molecule, the pest or weed control at 500 g/ha is 90% in the assay on Myzus persicae [1] and 100% in the assay with Phaedon cochleariae.
Turning to `Cc1cc(C(=O)NS(=O)(=O)c2cc(Cl)ccc2Br)nn1-c1c(F)cccc1F` [Example 294], the pest or weed control at 20 ppm in the assay on Meloidogyne incognita and with Myzus persicae [2] was 100% in each case. Moreover, the pest or weed control at 500 g/ha in the assay on Myzus persicae [1] and with Phaedon cochleariae was 100% throughout.
As for `Cc1ccccc1S(=O)(=O)NC(=O)c1nc(-c2c(F)cccc2F)c(C)n1C` [Example 311], the pest or weed control at 20 ppm in the assay on Meloidogyne incognita and in the assay on Myzus persicae [2] was 100% throughout. Moreover, the pest or weed control at 500 g/ha in the assay on Phaedon cochleariae stood at 83%.
Regarding `Cn1cc(C(=O)NS(=O)(=O)c2cccc(Cl)c2I)nc1-c1c(F)cccc1F` [Example 313], the pest or weed control at 20 ppm in the assay on Meloidogyne incognita is 90%; in the assay with Myzus persicae [2] it was 100%. For the same molecule, the pest or weed control at 500 g/ha in the assay with Myzus persicae [1] was found to be 90%; in the assay with Phaedon cochleariae it was 100%.
For `Cc1c(Cl)cccc1S(=O)(=O)NC(=O)c1cn(C)c(-c2c(F)cccc2F)n1` [Example 316], the values for the pest or weed control at 20 ppm in the assay on Meloidogyne incognita and with Myzus persicae [2] were 90% and 100%, respectively. Moreover, the results for the pest or weed control at 500 g/ha in the assay with Myzus persicae [1] and in the assay on Phaedon cochleariae were 90% and 100%, respectively.
Take `Cc1ccc(F)cc1S(=O)(=O)NC(=O)c1cn(C)c(-c2cccc(Cl)c2Cl)n1` [Example 319]: the pest or weed control at 20 ppm in the assay with Meloidogyne incognita stood at 90%; in the assay on Myzus persicae [2] it was 100%. In addition, the pest or weed control at 500 g/ha in the assay on Myzus persicae [1] and with Phaedon cochleariae was 100% in each case.
As to `Cc1c(S(=O)(=O)NC(=O)c2cn(C)c(-c3c(F)cccc3F)n2)sc2ccc(Cl)cc12` [Example 324], the pest or weed control at 20 ppm is 90% with Meloidogyne incognita and 100% with Myzus persicae [2]. Also, the pest or weed control at 500 g/ha in the assay on Myzus persicae [1] and in the assay with Phaedon cochleariae was 100% throughout.
Take `CCc1cccc(F)c1S(=O)(=O)NC(=O)c1cn(C)c(-c2c(F)cccc2F)n1` [Example 338]: the pest or weed control at 20 ppm in the assay with Meloidogyne incognita and in the assay on Myzus persicae [2] was 100% throughout. Besides, the pest or weed control at 500 g/ha was 90% with Myzus persicae [1] and 100% in the assay on Phaedon cochleariae.
For the molecule `CCc1cccc(OC(F)F)c1S(=O)(=O)NC(=O)c1cn(C)c(-c2c(F)cccc2F)n1` [Example 339], the pest or weed control at 20 ppm in the assay on Meloidogyne incognita and in the assay with Myzus persicae [2] was 100% each time. For the same molecule, the pest or weed control at 500 g/ha in the assay with Myzus persicae [1] amounted to 90%; in the assay on Phaedon cochleariae it was 100%.
Consider `Cc1cccc(F)c1S(=O)(=O)NC(=O)c1cn(C)c(-c2c(F)cccc2F)n1` [Example 363], for which the values for the pest or weed control at 20 ppm with Meloidogyne incognita and in the assay with Myzus persicae [2] were 90% and 100%, respectively. In addition, the pest or weed control at 500 g/ha in the assay on Myzus persicae [1] and with Phaedon cochleariae was 100% in each case.
`Cc1cccc(C(F)(F)F)c1S(=O)(=O)NC(=O)c1cn(C)c(-c2c(F)cccc2F)n1` [Example 369]: the pest or weed control at 20 ppm in the assay with Meloidogyne incognita came to 90%; in the assay on Myzus persicae [2], 100%. In addition, the pest or weed control at 500 g/ha in the assay on Myzus persicae [1] and in the assay on Phaedon cochleariae was 100% in each case.
Turning to `Cn1cc(C(=O)NS(=O)(=O)c2c(Br)cccc2C(F)(F)F)nc1-c1c(F)cccc1F` [Example 373], the results for the pest or weed control at 20 ppm with Meloidogyne incognita and with Myzus persicae [2] were 90% and 100%, respectively. The pest or weed control at 500 g/ha in the assay with Myzus persicae [1] and in the assay on Phaedon cochleariae was 100% each time.
On to `Cc1cccc(OC(F)(F)F)c1S(=O)(=O)NC(=O)c1cn(C)c(-c2c(F)cccc2F)n1` [Example 405], for which the pest or weed control at 20 ppm with Meloidogyne incognita came to 90%; with Myzus persicae [2], 100%. Also, in the assay on Phaedon cochleariae, the pest or weed control at 500 g/ha came out at 100%.
For `Cn1c(-c2c(F)cccc2F)nc(C(=O)NS(=O)(=O)c2ccccc2Cl)c1Cl` [Example 550], the pest or weed control at 20 ppm in the assay on Meloidogyne incognita amounted to 90%. In addition, the values for the pest or weed control at 500 g/ha in the assay with Myzus persicae [1] and in the assay with Phaedon cochleariae were 90% and 100%, respectively.
Take `Cc1ccccc1S(=O)(=O)NC(=O)c1nc(-c2c(F)cccc2F)n(C)c1Cl` [Example 552]: the pest or weed control at 20 ppm with Meloidogyne incognita was 90%. In addition, the pest or weed control at 500 g/ha was 90% with Myzus persicae [1] and 83% with Phaedon cochleariae.

Source of the values: patent US20200288710A1, “SUBSTITUTED SULPHONAMIDES FOR CONTROLLING ANIMAL PESTS” (BAYER CROPSCIENCE AKTIENGESELLSCHAFT, priority 2016, published 2020).
